Test results as given in patent US8937089B2, “Synergistic mixtures of anthranilamide invertebrate pest control agents” (priority 2004, dated 2015).
Read-outs that look alike come from different tables or passages of the source.

Columns and labels:
Experiment in all cases: whole plant or invertebrate
Type in all cases: in vivo
[1] = tested on: western flower thrip (Frankliniella occidentalis Pergande); details: for mortality at 100 ppm: rate 100 ppm
Method: (§1) Test compounds were formulated using a solution containing 10% acetone, 90% water and 300 ppm X-77® Spreader Lo-Foam Formula non-ionic surfactant containing alkylarylpolyoxyethylene, free fatty acids, glycols and 2-propanol (Loveland Industries, Inc.) to provide the desired concentration in ppm. Formulated test solutions were then applied in 1 mL volumes through a SUJ2 atomizer nozzle with 1/8 JJ custom body (Spraying Systems Co.) positioned 1.27 cm (0.5 inches) above the top of each test unit.
For evaluating control of the western flower thrip (Frankliniella occidentalis Pergande) through contact and/or systemic means, each test unit consisted of a small open container with a 5- to 7-day-old bean (var. Soleil) plant inside.
Test solutions were formulated and sprayed with 3 replications as described for Test A. After spraying, the test units were allowed to dry for 1 hour, 22 to 27 adult thrips were added to each unit and then a black, screened cap was placed on top. The test units were held for 7 days at 25° C. and 45-55% relative humidity.

[2] = tested on: cotton melon aphid (Aphis gossypii Glover)
Method: as §1
(§2) For evaluating control of cotton melon aphid (Aphis gossypii Glover) through contact and/or systemic means, each test unit consisted of a small open container with a 6- to 7-day-old cotton plant inside. This was pre-infested by placing on a leaf of the test plant 30 to 40 aphids on a piece of leaf excised from a culture plant (cut-leaf method). The larvae moved onto the test plant as the leaf piece desiccated. After pre-infestation, the soil of the test unit was covered with a layer of sand.
(§3) Test compounds were formulated and sprayed as described for Test A. The applications were replicated three times. After spraying of the formulated test compounds, each test unit was allowed to dry for 1 hour and then a black, screened cap was placed on top. The test units were held for 6 days in a growth chamber at 19-21° C. and 50-70% relative humidity.

[3] = tested on: corn planthopper (Peregrines maidis); details: for mortality at 100 ppm: rate 100 ppm; for mortality at 1000 ppm: rate 1000 ppm
Method: as §1
For evaluating control of corn planthopper (Peregrines maidis) through contact and/or systemic means, each test unit consisted of a small open cylindrical container with a 3- to 4-day-old corn (maize) plant (spike) inside. White sand was added to the top of the soil prior to application. Test compounds were formulated and sprayed with 3 replications as described for Test A. After spraying, the test units were allowed to dry for 1 hour before they were post-infested with 10 to 20 corn planthoppers (18- to 20-day-old nymphs) by sprinkling them onto the sand with a salt shaker. A black, screened cap was placed on the top of each container. The test units were held for 6 days in a growth chamber at 19-21° C. and 50-70% relative humidity.

[4] = tested on: silverleaf whitefly (Bemisia argentifolii Bellows and Perring)
Text: For evaluating control of silverleaf whitefly (Bemisia argentifolii Bellows and Perring) through contact and/or systemic means, each test unit consisted of a small open container with a 12- to 14-day-old cotton plant inside. This was pre-infested by placing test units into cages infested with adult whiteflies so that oviposition on the cotton leaves could occur. The adults were removed from the plants with an air-blast nozzle, and the test units were capped. The test units were then stored 2 to 3 days before spraying.
as §1
The results for all experimental compositions in this test were replicated three times. After spraying of the formulated test composition, each test unit was allowed to dry for 1 hour and the cap removed. The test units were held for 13 days in a growth chamber at 28° C. and 50-70% relative humidity.

[5] = tested on: green peach aphid (Myzus persicae Sulzer); details: for mortality at 100 ppm: rate 100 ppm; for mortality at 1000 ppm: rate 1000 ppm
Method: as §1
as §2, with “green peach” for “cotton melon”, “(Myzus persicae Sulzer)” for “(Aphis gossypii Glover)”, “12-” for “6-”, “15-day-old radish” for “7-day-old cotton”
as §3, with “described in” for “described for”, “Test A,” for “Test A. The applications were”, “test compound,” for “test compounds,”

[6] = tested on: potato leafhopper (Empoasca fabae Harris)
Method: as §1
[…] White sand was added to the top of the soil, and one of the primary leaves was excised prior to application. Test compounds were formulated and sprayed with 3 replications as described for Test A. After spraying, the test units were allowed to dry for 1 hour before they were infested with 5 potato leafhoppers (18- to 21-day-old adults). A black, screened cap was placed on the top of each container. The test units were held for 6 days in a growth chamber at 19-21° C. and 50-70% relative humidity.

[7] = Frankliniella occidentalis, 168 h, single compound, spray, 7 days, read-out: % mortality (obs)
[8] = Corn Plant Hopper, read-out: % mortality (obs)
[9] = Myzus persicae, in Raphanus sativus, Green Peach Aphid, read-out: % mortality (obs)

O=[N+]([O-])NC1=NCCN1Cc1ccc(Cl)nc1 [Imidacloprid]
mortality at 11 ppm ([1]; Frankliniella occidentalis, Table 3A, Imidacloprid 11 ppm, read-out: % Mortality (observed)): 20%
mortality at 77 ppm ([1]; Frankliniella occidentalis, Table 3A, Imidacloprid 77 ppm, read-out: % Mortality (observed)): 37%
mortality at 561 ppm ([1]; Frankliniella occidentalis, Table 3A, Imidacloprid 561 ppm, read-out: % Mortality (observed)): 90%
mortality at 0.05 ppm ([2]; Aphis gossypii, Table 6A, Imidacloprid 0.05 ppm, read-out: % Mortality (observed)): 12%
mortality at 0.3 ppm ([2]; Aphis gossypii, Table 6A, Imidacloprid 0.3 ppm, read-out: % Mortality (observed)): 10%
mortality at 2.1 ppm ([2]; Aphis gossypii, Table 6A, Imidacloprid 2.1 ppm, read-out: % Mortality (observed)): 40%
mortality at 0.1 ppm ([3]; Table 5A, Imidacloprid 0.1 ppm, read-out: % Mortality (observed)): 27%
mortality at 0.3 ppm ([3]; Table 5A, Imidacloprid 0.3 ppm, read-out: % Mortality (observed)): 37%
mortality at 1 ppm ([3]; Table 5A, Imidacloprid 1 ppm, read-out: % Mortality (observed)): 60%
mortality at 10 ppm ([4]; Bemisia argentifolii, in Gossypium hirsutum, Table 2A, Imidacloprid 10 ppm, read-out: % Mortality (observed)): 1%
mortality at 22 ppm ([4]; Bemisia argentifolii, in Gossypium hirsutum, Table 2A, Imidacloprid 22 ppm, read-out: % Mortality (observed)): 2%
mortality at 48 ppm ([4]; Bemisia argentifolii, in Gossypium hirsutum, Table 2A, Imidacloprid 48 ppm, read-out: % Mortality (observed)): 25%
mortality at 0.08 ppm ([5]; Myzus persicae, in Raphanus sativus, Table 7A, Imidacloprid 0.08 ppm, read-out: % Mortality (observed)): 4%
mortality at 0.15 ppm ([5]; Myzus persicae, in Raphanus sativus, Table 7A, Imidacloprid 0.15 ppm, read-out: % Mortality (observed)): 12%
mortality at 0.26 ppm ([5]; Myzus persicae, in Raphanus sativus, Table 7A, Imidacloprid 0.26 ppm, read-out: % Mortality (observed)): 50%
mortality at 0.2 ppm ([6]; Empoasca fabae, Table 4A, Imidacloprid 0.2 ppm, read-out: % Mortality (observed)): 20%
mortality at 0.4 ppm ([6]; Empoasca fabae, Table 4A, Imidacloprid 0.4 ppm, read-out: % Mortality (observed)): 0%
mortality at 1 ppm ([6]; Empoasca fabae, Table 4A, Imidacloprid 1 ppm, read-out: % Mortality (observed)): 20%

COc1cccc(C(=O)NN(C(=O)c2cc(C)cc(C)c2)C(C)(C)C)c1C [Methoxyfenozide]
mortality at 10 ppm ([1]; Frankliniella occidentalis, 168 h, rate 10 ppm, single compound, spray, 7 days, read-out: % mortality (obs)): 60%
mortality at 100 ppm [1, 7]: 60%
mortality at 500 ppm ([1]; Frankliniella occidentalis, 168 h, rate 500 ppm, single compound, spray, 7 days, read-out: % mortality (obs)): 60%
mortality at 5 ppm ([2]; Aphis gossypii, rate 5 ppm, read-out: % mortality (obs)): 32%
mortality at 50 ppm ([2]; Aphis gossypii, rate 50 ppm, read-out: % mortality (obs)): 54%
mortality at 500 ppm ([2]; Aphis gossypii, rate 500 ppm, read-out: % mortality (obs)): 38%
mortality at 10 ppm ([3]; Corn Plant Hopper, rate 10 ppm, read-out: % mortality (obs)): 7%
mortality at 100 ppm [3, 8]: 2%
mortality at 1000 ppm [3, 8]: 10%
mortality at 2 ppm ([4]; Bemisia argentifolii, in Gossypium hirsutum, Table 2B, rate 2 ppm, read-out: % mortality (obs)): 1%
mortality at 10 ppm ([4]; Bemisia argentifolii, in Gossypium hirsutum, Table 2B, rate 10 ppm, read-out: % mortality (obs)): 2%
mortality at 50 ppm ([4]; Bemisia argentifolii, in Gossypium hirsutum, Table 2B, rate 50 ppm, read-out: % mortality (obs)): 1%
mortality at 10 ppm ([5]; Myzus persicae, in Raphanus sativus, Green Peach Aphid, rate 10 ppm, read-out: % mortality (obs)): 7%
mortality at 100 ppm [5, 9]: 17%
mortality at 1000 ppm [5, 9]: 6%
mortality at 0.08 ppm ([6]; Empoasca fabae, rate 0.08 ppm, alone, read-out: % mortality (obs)): 13%
mortality at 0.4 ppm ([6]; Empoasca fabae, rate 0.4 ppm, alone, read-out: % mortality (obs)): 13%
mortality at 2 ppm ([6]; Empoasca fabae, rate 2 ppm, alone, read-out: % mortality (obs)): 20%

CCN(Cc1ccc(Cl)nc1)/C(=C/[N+](=O)[O-])NC [Nitenpyram]
% mortality (obs) ([1]; rate 5 ppm, single compound, spray, 7 days): 20%
% mortality (obs) ([1]; rate 50 ppm, single compound, spray, 7 days): 50%
% mortality (obs) ([1]; rate 500 ppm, single compound, spray, 7 days): 80%
% mortality (obs) ([2]; rate 0.2 ppm): 29%
% mortality (obs) ([2]; rate 0.4 ppm): 49%
% mortality (obs) ([2]; rate 0.6 ppm): 71%
% mortality (obs) ([3]; Corn Plant Hopper, rate 0.1 ppm): 27%
% mortality (obs) ([3]; Corn Plant Hopper, rate 0.2 ppm): 100%
% mortality (obs) ([3]; Corn Plant Hopper, rate 0.3 ppm): 100%
% mortality (obs) ([4]; Table 2B, rate 20 ppm): 53%
% mortality (obs) ([4]; Table 2B, rate 30 ppm): 84%
% mortality (obs) ([4]; Table 2B, rate 40 ppm): 85%
% mortality (obs) ([5]; Green Peach Aphid, rate 0.2 ppm): 7%
% mortality (obs) ([5]; Green Peach Aphid, rate 0.4 ppm): 17%
% mortality (obs) ([5]; Green Peach Aphid, rate 0.6 ppm): 40%
% mortality (obs) ([6]; rate 0.3 ppm, alone): 7%
% mortality (obs) ([6]; rate 0.4 ppm, alone): 73%
% mortality (obs) ([6]; rate 0.5 ppm, alone): 33%

CCc1ccc(C(=O)NN(C(=O)c2cc(C)cc(C)c2)C(C)(C)C)cc1 [Tebufenozide]
mortality at 100 ppm [1, 7]: 70%
mortality at 1000 ppm ([1]; Frankliniella occidentalis, 168 h, rate 1000 ppm, single compound, spray, 7 days, read-out: % mortality (obs)): 60%
mortality at 3000 ppm ([1]; Frankliniella occidentalis, 168 h, rate 3000 ppm, single compound, spray, 7 days, read-out: % mortality (obs)): 60%
mortality at 0.5 ppm ([2]; Aphis gossypii, rate 0.5 ppm, read-out: % mortality (obs)): 21%
mortality at 1.5 ppm ([2]; Aphis gossypii, rate 1.5 ppm, read-out: % mortality (obs)): 37%
mortality at 3 ppm ([2]; Aphis gossypii, rate 3 ppm, read-out: % mortality (obs)): 22%
mortality at 100 ppm [3, 8]: 12%
mortality at 1000 ppm [3, 8]: 16%
mortality at 3000 ppm ([3]; Corn Plant Hopper, rate 3000 ppm, read-out: % mortality (obs)): 12%
mortality at 100 ppm ([4]; Bemisia argentifolii, in Gossypium hirsutum, Table 2B, rate 100 ppm, read-out: % mortality (obs)): 2%
mortality at 1000 ppm ([4]; Bemisia argentifolii, in Gossypium hirsutum, Table 2B, rate 1000 ppm, read-out: % mortality (obs)): 6%
mortality at 3000 ppm ([4]; Bemisia argentifolii, in Gossypium hirsutum, Table 2B, rate 3000 ppm, read-out: % mortality (obs)): 7%
mortality at 100 ppm [5, 9]: 8%
mortality at 1000 ppm [5, 9]: 7%
mortality at 3000 ppm ([5]; Myzus persicae, in Raphanus sativus, Green Peach Aphid, rate 3000 ppm, read-out: % mortality (obs)): 9%
mortality at 3 ppm ([6]; Empoasca fabae, rate 3 ppm, alone, read-out: % mortality (obs)): 40%
mortality at 4 ppm ([6]; Empoasca fabae, rate 4 ppm, alone, read-out: % mortality (obs)): 27%
mortality at 5 ppm ([6]; Empoasca fabae, rate 5 ppm, alone, read-out: % mortality (obs)): 20%

CS/C(C)=N\OC(=O)N(C)SN(C)C(=O)O/N=C(\C)SC [Thiodicarb]
% mortality (obs) ([1]; rate 20 ppm, single compound, spray, 7 days): 60%
% mortality (obs) ([1]; rate 200 ppm, single compound, spray, 7 days): 80%
% mortality (obs) ([2]; rate 3 ppm): 49%
% mortality (obs) ([2]; rate 10 ppm): 32%
% mortality (obs) ([2]; rate 30 ppm): 69%
% mortality (obs) ([3]; Corn Plant Hopper, rate 0.08 ppm): 2%
% mortality (obs) ([3]; Corn Plant Hopper, rate 0.16 ppm): 6%
% mortality (obs) ([3]; Corn Plant Hopper, rate 0.4 ppm): 7%
% mortality (obs) ([4]; Table 2B, rate 100 ppm): 1%
% mortality (obs) ([4]; Table 2B, rate 1000 ppm): 0%
% mortality (obs) ([4]; Table 2B, rate 3000 ppm): 6%
% mortality (obs) ([5]; Green Peach Aphid, rate 20 ppm): 10%
% mortality (obs) ([5]; Green Peach Aphid, rate 150 ppm): 17%
% mortality (obs) ([5]; Green Peach Aphid, rate 900 ppm): 98%
% mortality (obs) ([6]; rate 0.08 ppm, alone): 0%
% mortality (obs) ([6]; rate 0.16 ppm, alone): 20%
% mortality (obs) ([6]; rate 0.4 ppm, alone): 20%
